Key:
Test in all cases: Carna kinome panel
Format in all cases: biochemical
CDK5/p25 = CDK5/p25 (Homo sapiens (Human), UniProt Q00535); details: read-out: % Inhibition at 10 μM of the test compound
EGFR(L858R) = EGFR(L858R) (Homo sapiens (Human), UniProt P00533, L858R); details: read-out: % Inhibition at 10 μM of the test compound
NEK6 = NEK6 (Homo sapiens (Human), UniProt Q9HC98); details: read-out: % Inhibition at 10 μM of the test compound
PAK4 = PAK4 (Homo sapiens (Human), UniProt O96013); details: read-out: % Inhibition at 10 μM of the test compound
TRKB = TRKB (Homo sapiens (Human), UniProt Q16620); details: read-out: % Inhibition at 10 μM of the test compound
EPHB2 = EPHB2 (Homo sapiens (Human), UniProt P29323); details: read-out: % Inhibition at 10 μM of the test compound
TNIK = TNIK (Homo sapiens (Human), UniProt Q9UKE5); details: read-out: % Inhibition at 10 μM of the test compound
PHKG1 = PHKG1 (Homo sapiens (Human), UniProt Q16816); details: read-out: % Inhibition at 10 μM of the test compound
PRKX = PRKX (Homo sapiens (Human), UniProt P51817); details: read-out: % Inhibition at 10 μM of the test compound
DYRK2 = DYRK2 (Homo sapiens (Human), UniProt Q92630); details: read-out: % Inhibition at 10 μM of the test compound
TYRO3 = TYRO3 (Homo sapiens (Human), UniProt Q06418); details: read-out: % Inhibition at 10 μM of the test compound
TSSK2 = TSSK2 (Homo sapiens (Human), UniProt Q96PF2); details: read-out: % Inhibition at 10 μM of the test compound
MAP2K3_Cascade = MAP2K3_Cascade (Homo sapiens (Human), UniProt P46734); details: read-out: % Inhibition at 10 μM of the test compound
p70S6K = p70S6K (Homo sapiens (Human), UniProt P23443); details: read-out: % Inhibition at 10 μM of the test compound
FGFR1(V561M) = FGFR1(V561M) (Homo sapiens (Human), UniProt P11362, V561M); details: read-out: % Inhibition at 10 μM of the test compound
IKKβ = IKKβ (Homo sapiens (Human), UniProt O14920); details: read-out: % Inhibition at 10 μM of the test compound
EPHA1 = EPHA1 (Homo sapiens (Human), UniProt P21709); details: read-out: % Inhibition at 10 μM of the test compound
MELK = MELK (Homo sapiens (Human), UniProt Q14680); details: read-out: % Inhibition at 10 μM of the test compound
RSK2 = RSK2 (Homo sapiens (Human), UniProt P51812); details: read-out: % Inhibition at 10 μM of the test compound
CLK2 = CLK2 (Homo sapiens (Human), UniProt P49760); details: read-out: % Inhibition at 10 μM of the test compound
LYNb = LYNb (Homo sapiens (Human), UniProt P07948); details: read-out: % Inhibition at 10 μM of the test compound
PDGFRα(T674I) = PDGFRα(T674I) (Homo sapiens (Human), UniProt P16234, T674I); details: read-out: % Inhibition at 10 μM of the test compound
SPHK2 = SPHK2 (Homo sapiens (Human), UniProt Q9NRA0); details: read-out: % Inhibition at 10 μM of the test compound
TXK = TXK (Homo sapiens (Human), UniProt P42681); details: read-out: % Inhibition at 10 μM of the test compound
ALK(L1152insT) = test system: ALK(L1152insT)
Description: (§1) Briefly, a selection of compounds was screened against a panel of kinases at a single concentration of 10 μM. […] This was completed using one of two assays, depending on the kinase being examined: 1) IMAP Assay. A solution of 4× inhibitor, 4× substrate/ATP/metal solution and 2× kinase solution was prepared with assay buffer (20 mM HEPES, 0.01% Tween-20, 2 mM DTT, pH 7.4) and mixed, then incubated in 384-well black plates for 1 hour at room temperature. The IMAP binding reagent (IMAP Screening Express kit; Molecular Devices) was added to each well and incubated for 30 minutes. […] 2) Off-Chip Mobility Shift Assay (MSA). A solution of 4× inhibitor, 4× substrate/ATP/metal solution and 2× kinase solution was prepared with assay buffer (20 mM HEPES, 0.01% Triton X-100, 2 mM DTT, pH 7.5) and mixed, then incubated in 384-well plates for 1 or 5 hours depending on the kinase, at room temperature. Termination buffer (QuickScout Screening assist MSA; Carna Biosciences) was added to each well. The entire reaction mixture was then applied to a LabChip3000 system (Caliper Life Science), and the product and substrate peptide peaks were separated and quantified. […] The entire reaction mixture was then applied to a LabChip3000 system (Caliper Life Science), and the product and substrate peptide peaks were separated and quantified.

ALK = ALK (Homo sapiens (Human), UniProt Q9UM73); details: read-out: % Inhibition at 10 μM of the test compound
ALK(C1156Y) = ALK(C1156Y) (Homo sapiens (Human), UniProt Q9UM73, C1156Y); details: read-out: % Inhibition at 10 μM of the test compound
NEK7 = NEK7 (Homo sapiens (Human), UniProt Q8TDX7); details: read-out: % Inhibition at 10 μM of the test compound
FGFR3(K650M) = FGFR3(K650M) (Homo sapiens (Human), UniProt P22607, K650M); details: read-out: % Inhibition at 10 μM of the test compound
KIT(T670I) = KIT(T670I) (Homo sapiens (Human), UniProt P10721, T670I); details: read-out: % Inhibition at 10 μM of the test compound
AKT3 = AKT3 (Homo sapiens (Human), UniProt Q9Y243); details: read-out: % Inhibition at 10 μM of the test compound
RSK3 = RSK3 (Homo sapiens (Human), UniProt Q15349); details: read-out: % Inhibition at 10 μM of the test compound
PHKG2 = PHKG2 (Homo sapiens (Human), UniProt P15735); details: read-out: % Inhibition at 10 μM of the test compound
PASK = PASK (Homo sapiens (Human), UniProt Q96RG2); details: read-out: % Inhibition at 10 μM of the test compound
CaMK4 = CaMK4 (Homo sapiens (Human), UniProt Q16566); details: read-out: % Inhibition at 10 μM of the test compound
EGFR(d746-750/T790M) = EGFR(d746-750/T790M) (Homo sapiens (Human), UniProt P00533, DEL746-750/T790M); details: read-out: % Inhibition at 10 μM of the test compound
JNK1 = JNK1 (Homo sapiens (Human), UniProt P45983); details: read-out: % Inhibition at 10 μM of the test compound
CK2α2/β = CK2α2/β (Homo sapiens (Human), UniProt P19784); details: read-out: % Inhibition at 10 μM of the test compound
Description: as §1

PKD2 = PKD2 (Homo sapiens (Human), UniProt Q9BZL6); details: read-out: % Inhibition at 10 μM of the test compound
TYK2 = TYK2 (Homo sapiens (Human), UniProt P29597); details: read-out: % Inhibition at 10 μM of the test compound

Sequence of CDK5/p25 (Q00535 whole entry, looked up): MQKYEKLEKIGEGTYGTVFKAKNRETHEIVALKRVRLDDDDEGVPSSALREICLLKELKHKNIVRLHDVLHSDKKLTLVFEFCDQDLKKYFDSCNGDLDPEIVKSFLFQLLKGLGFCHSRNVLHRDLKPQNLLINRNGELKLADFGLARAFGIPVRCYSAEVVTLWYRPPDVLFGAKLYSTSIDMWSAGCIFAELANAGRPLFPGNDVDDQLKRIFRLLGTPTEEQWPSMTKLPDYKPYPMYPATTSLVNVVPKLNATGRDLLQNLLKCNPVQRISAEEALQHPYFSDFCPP
Sequence of CDK5/p25 (Q15078 whole entry partner, looked up): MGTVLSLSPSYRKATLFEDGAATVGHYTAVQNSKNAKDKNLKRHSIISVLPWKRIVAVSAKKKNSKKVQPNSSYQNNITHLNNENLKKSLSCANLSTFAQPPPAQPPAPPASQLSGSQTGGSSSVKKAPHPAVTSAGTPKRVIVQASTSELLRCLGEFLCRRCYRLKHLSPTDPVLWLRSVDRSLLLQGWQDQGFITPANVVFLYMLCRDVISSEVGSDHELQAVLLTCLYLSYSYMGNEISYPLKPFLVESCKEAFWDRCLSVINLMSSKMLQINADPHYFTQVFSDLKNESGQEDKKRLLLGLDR
Sequence of EGFR(d746-750/T790M) (P00533 other isoform, or with tags, fused parts or gaps T790M/del 1-668/del 746-750 limits assumed): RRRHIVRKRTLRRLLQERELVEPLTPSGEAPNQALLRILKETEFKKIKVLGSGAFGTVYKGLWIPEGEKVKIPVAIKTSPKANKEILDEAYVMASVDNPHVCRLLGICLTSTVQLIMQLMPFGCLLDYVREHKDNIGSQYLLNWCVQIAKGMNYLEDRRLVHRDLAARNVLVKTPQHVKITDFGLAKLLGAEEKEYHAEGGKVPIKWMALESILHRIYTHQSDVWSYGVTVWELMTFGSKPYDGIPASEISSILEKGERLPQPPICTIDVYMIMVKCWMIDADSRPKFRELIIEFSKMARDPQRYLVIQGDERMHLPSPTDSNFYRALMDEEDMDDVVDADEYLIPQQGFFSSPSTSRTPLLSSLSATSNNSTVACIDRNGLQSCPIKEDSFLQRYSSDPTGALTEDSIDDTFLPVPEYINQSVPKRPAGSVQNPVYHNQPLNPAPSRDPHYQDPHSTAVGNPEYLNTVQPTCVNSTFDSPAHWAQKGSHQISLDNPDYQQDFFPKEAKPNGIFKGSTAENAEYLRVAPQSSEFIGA
Sequence of IKKβ (O14920 whole entry, looked up): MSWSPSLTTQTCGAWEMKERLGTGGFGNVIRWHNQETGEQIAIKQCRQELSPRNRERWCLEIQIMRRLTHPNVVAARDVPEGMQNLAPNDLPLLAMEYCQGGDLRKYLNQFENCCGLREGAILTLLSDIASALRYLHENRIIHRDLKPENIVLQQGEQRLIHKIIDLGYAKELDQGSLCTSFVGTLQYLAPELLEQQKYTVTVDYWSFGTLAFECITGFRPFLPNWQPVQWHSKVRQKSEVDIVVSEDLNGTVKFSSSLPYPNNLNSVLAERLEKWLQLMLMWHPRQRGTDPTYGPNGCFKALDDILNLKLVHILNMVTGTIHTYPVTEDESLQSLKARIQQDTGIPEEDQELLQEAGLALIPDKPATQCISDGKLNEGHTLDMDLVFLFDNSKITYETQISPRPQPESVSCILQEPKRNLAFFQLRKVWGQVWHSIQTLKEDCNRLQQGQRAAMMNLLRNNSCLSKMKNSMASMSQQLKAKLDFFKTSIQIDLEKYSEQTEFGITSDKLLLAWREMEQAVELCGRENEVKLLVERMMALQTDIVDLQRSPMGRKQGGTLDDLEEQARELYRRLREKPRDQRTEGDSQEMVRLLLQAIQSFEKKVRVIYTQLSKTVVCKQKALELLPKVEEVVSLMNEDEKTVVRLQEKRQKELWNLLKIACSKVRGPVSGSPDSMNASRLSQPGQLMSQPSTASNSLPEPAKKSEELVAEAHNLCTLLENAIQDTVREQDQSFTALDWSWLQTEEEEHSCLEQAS
Sequence of PKD2 (Q9BZL6 whole entry): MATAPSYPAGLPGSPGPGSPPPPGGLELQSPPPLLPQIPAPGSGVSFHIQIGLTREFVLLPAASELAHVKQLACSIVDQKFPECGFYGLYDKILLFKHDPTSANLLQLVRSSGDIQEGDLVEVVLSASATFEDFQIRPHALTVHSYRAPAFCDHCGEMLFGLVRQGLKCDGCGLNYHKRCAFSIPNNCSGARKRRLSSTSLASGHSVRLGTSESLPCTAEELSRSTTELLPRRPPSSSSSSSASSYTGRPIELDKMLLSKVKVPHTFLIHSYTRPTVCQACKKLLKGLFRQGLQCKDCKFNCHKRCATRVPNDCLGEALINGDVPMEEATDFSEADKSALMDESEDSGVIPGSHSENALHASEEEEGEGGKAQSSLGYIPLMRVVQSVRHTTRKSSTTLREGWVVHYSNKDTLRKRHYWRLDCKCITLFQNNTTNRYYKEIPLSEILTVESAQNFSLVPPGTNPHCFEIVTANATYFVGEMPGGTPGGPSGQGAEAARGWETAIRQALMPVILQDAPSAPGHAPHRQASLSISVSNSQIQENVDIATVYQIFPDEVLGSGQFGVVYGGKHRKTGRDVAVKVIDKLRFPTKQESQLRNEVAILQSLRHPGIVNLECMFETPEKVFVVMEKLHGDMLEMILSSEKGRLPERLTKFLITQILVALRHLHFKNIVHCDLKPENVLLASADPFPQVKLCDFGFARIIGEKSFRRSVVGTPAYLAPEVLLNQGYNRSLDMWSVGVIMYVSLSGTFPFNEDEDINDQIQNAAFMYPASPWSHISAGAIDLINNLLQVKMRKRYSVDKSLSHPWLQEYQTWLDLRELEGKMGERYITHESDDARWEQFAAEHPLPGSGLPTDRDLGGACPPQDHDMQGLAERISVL
Sequence of FGFR3(K650M) (P22607 23-806 K650M): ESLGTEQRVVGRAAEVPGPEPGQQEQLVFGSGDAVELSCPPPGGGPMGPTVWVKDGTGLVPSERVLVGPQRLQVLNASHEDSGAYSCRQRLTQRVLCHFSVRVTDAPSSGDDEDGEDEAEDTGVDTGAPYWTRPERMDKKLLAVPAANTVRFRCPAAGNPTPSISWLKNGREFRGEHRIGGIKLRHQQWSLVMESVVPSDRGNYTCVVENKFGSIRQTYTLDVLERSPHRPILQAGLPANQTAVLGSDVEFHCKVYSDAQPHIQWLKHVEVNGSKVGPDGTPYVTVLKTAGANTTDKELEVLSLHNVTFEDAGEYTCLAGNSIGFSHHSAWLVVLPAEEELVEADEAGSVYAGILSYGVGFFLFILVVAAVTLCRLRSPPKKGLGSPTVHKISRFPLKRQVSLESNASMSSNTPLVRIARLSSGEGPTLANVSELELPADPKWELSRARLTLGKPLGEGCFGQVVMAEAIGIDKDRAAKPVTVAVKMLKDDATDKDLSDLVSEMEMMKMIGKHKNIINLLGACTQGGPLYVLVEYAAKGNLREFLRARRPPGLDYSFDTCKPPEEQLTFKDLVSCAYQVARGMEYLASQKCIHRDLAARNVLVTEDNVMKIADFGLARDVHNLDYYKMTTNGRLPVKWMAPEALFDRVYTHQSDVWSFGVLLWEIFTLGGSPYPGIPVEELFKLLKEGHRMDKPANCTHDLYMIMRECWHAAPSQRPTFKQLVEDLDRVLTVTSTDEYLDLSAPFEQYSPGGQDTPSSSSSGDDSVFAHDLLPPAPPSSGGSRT
Sequence of PHKG1 (Q16816 whole entry): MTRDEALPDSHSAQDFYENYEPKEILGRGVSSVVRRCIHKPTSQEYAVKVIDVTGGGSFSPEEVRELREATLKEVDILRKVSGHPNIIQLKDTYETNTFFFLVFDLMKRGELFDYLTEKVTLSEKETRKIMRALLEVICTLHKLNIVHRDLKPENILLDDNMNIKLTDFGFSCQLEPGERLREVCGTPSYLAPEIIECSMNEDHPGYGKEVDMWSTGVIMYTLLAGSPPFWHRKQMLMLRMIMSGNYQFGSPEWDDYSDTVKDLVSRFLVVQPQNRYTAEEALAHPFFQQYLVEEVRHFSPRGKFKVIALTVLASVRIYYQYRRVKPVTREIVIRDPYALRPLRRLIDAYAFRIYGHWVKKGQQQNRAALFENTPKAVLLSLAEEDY
Sequence of CLK2 (P49760 whole entry, species assumed): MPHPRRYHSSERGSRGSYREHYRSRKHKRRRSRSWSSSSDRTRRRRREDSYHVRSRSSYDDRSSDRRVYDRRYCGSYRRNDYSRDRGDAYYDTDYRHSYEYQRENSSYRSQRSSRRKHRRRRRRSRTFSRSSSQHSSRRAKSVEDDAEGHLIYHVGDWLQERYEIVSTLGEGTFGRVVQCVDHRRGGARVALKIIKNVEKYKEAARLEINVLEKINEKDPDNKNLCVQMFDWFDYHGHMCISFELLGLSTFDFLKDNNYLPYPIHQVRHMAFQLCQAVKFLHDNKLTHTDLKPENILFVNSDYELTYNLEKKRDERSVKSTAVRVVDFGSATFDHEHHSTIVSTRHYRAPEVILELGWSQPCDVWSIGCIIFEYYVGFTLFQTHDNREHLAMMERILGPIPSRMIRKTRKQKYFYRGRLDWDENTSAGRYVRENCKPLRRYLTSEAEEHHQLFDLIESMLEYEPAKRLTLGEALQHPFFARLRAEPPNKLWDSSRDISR
Sequence of TXK (P42681 whole entry): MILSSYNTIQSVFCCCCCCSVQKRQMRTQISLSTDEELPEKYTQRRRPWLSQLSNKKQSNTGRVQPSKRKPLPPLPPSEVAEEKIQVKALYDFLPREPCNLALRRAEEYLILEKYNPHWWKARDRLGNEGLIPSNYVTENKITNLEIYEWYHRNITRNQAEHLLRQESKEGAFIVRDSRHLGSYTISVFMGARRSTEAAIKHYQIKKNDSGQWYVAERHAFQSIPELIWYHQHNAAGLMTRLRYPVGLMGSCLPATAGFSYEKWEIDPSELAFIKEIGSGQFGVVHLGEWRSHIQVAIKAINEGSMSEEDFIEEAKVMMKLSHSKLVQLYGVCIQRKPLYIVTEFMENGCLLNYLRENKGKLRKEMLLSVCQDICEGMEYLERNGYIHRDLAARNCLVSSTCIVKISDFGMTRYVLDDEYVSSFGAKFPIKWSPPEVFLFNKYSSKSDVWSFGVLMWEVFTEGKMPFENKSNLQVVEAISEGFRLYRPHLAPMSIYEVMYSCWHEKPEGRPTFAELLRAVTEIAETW

CCC1(c2ccccc2)C2=C(CC(C)(C)CC2=O)Nc2ncsc21 (stereo not shown) [Compound 1, 9-Ethyl-6,6-dimethyl-9-phenyl-5,6,7,9-tetrahydrothiazolo[4,5-b]quinolin-8(4H)-one]
inhibition at 10 µM (CDK5/p25): 41.2% | inhibition at 10 µM (EGFR(L858R)): 22.2% | inhibition at 10 µM (NEK6): 20.9% | inhibition at 10 µM (PAK4): 17% | inhibition at 10 µM (TRKB): 16% | inhibition at 10 µM (EPHB2): 14.5% | inhibition at 10 µM (TNIK): 8.6% | inhibition at 10 µM (PHKG1): 5.9% | inhibition at 10 µM (PRKX): 4.2% | inhibition at 10 µM (DYRK2): 4% | inhibition at 10 µM (TYRO3): 3.8% | inhibition at 10 µM (TSSK2): 3.1% | inhibition at 10 µM (MAP2K3_Cascade): 2.9% | inhibition at 10 µM (p70S6K): 2.9% | inhibition at 10 µM (FGFR1(V561M)): 2.6% | inhibition at 10 µM (IKKβ): 2.3% | inhibition at 10 µM (EPHA1): 2% | inhibition at 10 µM (MELK): 1.6% | inhibition at 10 µM (RSK2): 1.4% | inhibition at 10 µM (CLK2): 0.9% | inhibition at 10 µM (LYNb): 0.8% | inhibition at 10 µM (PDGFRα(T674I)): 0.3% | inhibition at 10 µM (SPHK2): -0.8% | inhibition at 10 µM (TXK): -1.3% | % Inhibition at 10 μM of the test compound (ALK(L1152insT)): −2.3% | inhibition at 10 µM (ALK): -3.1% | inhibition at 10 µM (ALK(C1156Y)): -3.7% | inhibition at 10 µM (NEK7): -3.9% | inhibition at 10 µM (FGFR3(K650M)): -4% | inhibition at 10 µM (KIT(T670I)): -4.2% | inhibition at 10 µM (AKT3): -4.5% | inhibition at 10 µM (RSK3): -4.9% | inhibition at 10 µM (PHKG2): -5% | inhibition at 10 µM (PASK): -5.2% | inhibition at 10 µM (CaMK4): -5.4% | inhibition at 10 µM (EGFR(d746-750/T790M)): -5.6% | inhibition at 10 µM (JNK1): -7.3% | inhibition at 10 µM (CK2α2/β): -11.4% | inhibition at 10 µM (PKD2): -13.8% | inhibition at 10 µM (TYK2): -18.9%

Source: patent publication US11203601B2, “Tricyclic compounds as glycogen synthase kinase 3 (GSK3) inhibitors and uses thereof” (The Broad Institute, Inc., priority 2017, dated 2021)
